Patent US20190016689A1, “NOVEL FLUORINATED QUINAZOLINE DERIVATIVES AS EGFR INHIBITORS” (TRILLIUM THERAPEUTICS INC., priority 2016, published 2019)

What was measured:
T-47D = experiment: NCI screening panel (SRB); format: cell-based; conditions: Homo sapiens, T47D, T-47D (Breast), 48 h; for CC50: read-out: LC50 (the source's name)
SN12C = experiment: NCI screening panel (SRB); format: cell-based; conditions: Homo sapiens, SN12C (Renal), 48 h; for CC50: read-out: LC50 (the source's name)
NCI-H460 = experiment: NCI screening panel (SRB); format: cell-based; conditions: Homo sapiens, NCI-H460 (NSCLC), 48 h; for CC50: read-out: LC50 (the source's name)
NCI-H522 = experiment: NCI screening panel (SRB); format: cell-based; conditions: Homo sapiens, NCI-H522 (NSCLC), 48 h; for CC50: read-out: LC50 (the source's name)
MOLT-4 = experiment: NCI screening panel (SRB); format: cell-based; conditions: Homo sapiens, MOLT-4 (Leukemia), 48 h; for CC50: read-out: LC50 (the source's name)
UACC-257 = experiment: NCI screening panel (SRB); format: cell-based; conditions: Homo sapiens, UACC-257 (Melanoma), 48 h; for CC50: read-out: LC50 (the source's name)
ERBB2 = ERBB2 (Homo sapiens, UniProt P04626); experiment: Kinase assays, selectivity panel (qPCR); conditions: read-out: % Control @ 300 nM
ERBB2, sequence (P04626 23-1255): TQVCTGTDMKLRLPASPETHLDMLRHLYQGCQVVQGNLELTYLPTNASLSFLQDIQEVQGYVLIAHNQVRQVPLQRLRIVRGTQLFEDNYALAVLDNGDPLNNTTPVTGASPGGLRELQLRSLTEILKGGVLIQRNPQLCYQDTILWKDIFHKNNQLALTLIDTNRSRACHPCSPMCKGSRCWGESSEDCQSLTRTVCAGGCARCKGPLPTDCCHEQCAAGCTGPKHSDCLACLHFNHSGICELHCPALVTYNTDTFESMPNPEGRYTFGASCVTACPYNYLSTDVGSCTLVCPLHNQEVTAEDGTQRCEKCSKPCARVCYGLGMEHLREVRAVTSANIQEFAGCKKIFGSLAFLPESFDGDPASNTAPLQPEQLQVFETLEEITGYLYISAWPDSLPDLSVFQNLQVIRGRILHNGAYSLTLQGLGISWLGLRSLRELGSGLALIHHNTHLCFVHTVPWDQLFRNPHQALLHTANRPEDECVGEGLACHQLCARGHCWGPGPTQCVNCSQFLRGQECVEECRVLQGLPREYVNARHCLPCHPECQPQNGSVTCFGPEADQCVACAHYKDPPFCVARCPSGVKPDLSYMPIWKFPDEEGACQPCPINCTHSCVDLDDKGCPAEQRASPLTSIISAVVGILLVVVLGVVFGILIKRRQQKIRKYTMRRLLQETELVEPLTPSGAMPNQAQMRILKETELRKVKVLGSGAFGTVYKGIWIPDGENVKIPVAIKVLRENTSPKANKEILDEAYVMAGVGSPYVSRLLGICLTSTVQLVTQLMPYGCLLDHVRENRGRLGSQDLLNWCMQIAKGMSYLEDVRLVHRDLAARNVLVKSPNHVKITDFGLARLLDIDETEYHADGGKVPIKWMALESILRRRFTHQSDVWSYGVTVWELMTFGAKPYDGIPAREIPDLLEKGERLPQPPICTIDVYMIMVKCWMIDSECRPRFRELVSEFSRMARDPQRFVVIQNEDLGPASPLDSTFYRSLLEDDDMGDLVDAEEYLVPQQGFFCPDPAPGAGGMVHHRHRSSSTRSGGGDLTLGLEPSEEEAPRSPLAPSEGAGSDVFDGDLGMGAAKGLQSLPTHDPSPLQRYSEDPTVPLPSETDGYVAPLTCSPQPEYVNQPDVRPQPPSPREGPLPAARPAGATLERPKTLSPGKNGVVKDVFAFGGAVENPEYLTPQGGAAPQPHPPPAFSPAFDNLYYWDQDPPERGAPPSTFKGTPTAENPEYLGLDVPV

UACC-62 = experiment: NCI screening panel (SRB); format: cell-based; conditions: Homo sapiens; UACC-62 (Melanoma), 48 h
EGFR (L861Q) = EGFR (L861Q) (Homo sapiens, UniProt P00533, L861Q); experiment: Kinase assays, selectivity panel (qPCR); conditions: read-out: % Control @ 300 nM
EGFR (L861Q), sequence (P00533 25-1210 L861Q): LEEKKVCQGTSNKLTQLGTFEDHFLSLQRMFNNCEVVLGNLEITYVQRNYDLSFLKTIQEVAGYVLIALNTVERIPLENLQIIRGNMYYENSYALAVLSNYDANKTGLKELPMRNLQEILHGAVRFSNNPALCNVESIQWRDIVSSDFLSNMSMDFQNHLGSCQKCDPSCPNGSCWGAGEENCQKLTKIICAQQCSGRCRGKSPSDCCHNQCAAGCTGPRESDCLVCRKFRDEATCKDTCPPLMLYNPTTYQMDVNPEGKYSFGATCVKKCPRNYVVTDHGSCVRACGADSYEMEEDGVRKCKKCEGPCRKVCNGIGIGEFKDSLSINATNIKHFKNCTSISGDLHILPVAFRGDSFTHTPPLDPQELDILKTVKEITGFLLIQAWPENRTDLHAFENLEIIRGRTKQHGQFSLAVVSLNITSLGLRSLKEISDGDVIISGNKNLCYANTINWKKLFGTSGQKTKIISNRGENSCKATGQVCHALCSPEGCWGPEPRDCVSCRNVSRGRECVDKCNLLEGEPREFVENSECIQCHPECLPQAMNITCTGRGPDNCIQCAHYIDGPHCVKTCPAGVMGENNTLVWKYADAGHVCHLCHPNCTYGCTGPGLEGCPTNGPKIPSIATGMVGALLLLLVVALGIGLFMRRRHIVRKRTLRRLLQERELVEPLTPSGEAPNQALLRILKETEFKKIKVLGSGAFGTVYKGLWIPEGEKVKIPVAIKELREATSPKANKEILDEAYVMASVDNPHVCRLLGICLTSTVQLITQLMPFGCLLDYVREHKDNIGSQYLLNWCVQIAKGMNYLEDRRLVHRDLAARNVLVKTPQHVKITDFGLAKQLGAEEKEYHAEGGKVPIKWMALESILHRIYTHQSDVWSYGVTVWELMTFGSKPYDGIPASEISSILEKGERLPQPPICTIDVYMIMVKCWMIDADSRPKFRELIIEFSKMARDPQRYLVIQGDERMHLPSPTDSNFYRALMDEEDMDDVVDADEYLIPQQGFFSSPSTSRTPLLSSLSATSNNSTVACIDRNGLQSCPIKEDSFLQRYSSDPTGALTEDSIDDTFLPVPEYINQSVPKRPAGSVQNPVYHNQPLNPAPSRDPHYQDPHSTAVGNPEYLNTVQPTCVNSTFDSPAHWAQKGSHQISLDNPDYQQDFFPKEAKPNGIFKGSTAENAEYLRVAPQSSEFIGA

HOP-62 = experiment: NCI screening panel (SRB); format: cell-based; conditions: Homo sapiens, HOP-62 (NSCLC), 48 h; for CC50: read-out: LC50 (the source's name)
SK-MEL-28 = experiment: NCI screening panel (SRB); format: cell-based; conditions: Homo sapiens, SK-MEL-28 (Melanoma), 48 h; for CC50: read-out: LC50 (the source's name)
Microsomal stability = format: in vitro ADME, mouse (CD-1, male); conditions: Mouse liver microsomes with NADPH; for Remaining Percentage (%) after 60 min: 1 μM; for half-life at 1 μM / microsomal CLint at 1 μM: male, CD-1
Method: Working stocks were initially diluted to a concentration of 40.0 μM in 0.1 M potassium phosphate buffer before addition to the reaction vials. Pooled mouse (CD-1, male) or human (50 donors) liver microsomes were utilized at a final concentration of 0.5 mg/ml. […] Reactions were carried out at 37° C. in a shaker, and the final concentration of DMSO was kept constant at 0.01%. The final volume for each reaction was 100 μL, which includes the addition of an NADPH-Regeneration solution (NRS) mix. This NRS mix is comprised of glucose 6-phosphate dehydrogenase (0.4 U/mL), NADP+(1.3 mM), MgCl2 (3.3 mM), and glucose 6-phosphate (3.3 mM) in assay mixtures. […] Samples were then centrifuged at 4,000 rpm for 10 minutes to remove debris and precipitated protein. Approximately 150 μL of supernatant was subsequently transferred to a new 96 well microplate for LC/MS analysis.
Narrow-window mass extraction LC/MS analysis was performed for all samples using a Waters Xevo quadrupole time-of-flight (QTof) mass spectrometer and an ACQUITY UPLC system, to determine relative peak areas of parent compound.

HOP-92 = experiment: NCI screening panel (SRB); format: cell-based; conditions: Homo sapiens, HOP-92 (NSCLC), 48 h; for CC50: read-out: LC50 (the source's name)
in vitro = conditions: human, Caco-2, pH 7.4
Method: At this stage of growth, cell monolayers were fully polarized and differentiated.
The permeability assay buffer was Hanks Balanced Salt Solution containing 10 mM HEPES and 15 mM glucose at a pH of 7.4. The dosing buffer contained 5 μM metoprolol (positive control), 5 μM atenolol (negative control) and 100 μM lucifer yellow. The buffer in the receiver chamber also contained 1% bovine serum albumin (BSA). The dosing solution concentration was 5 μM in the assay buffer. Digoxin (20 μM) was used as Pgp substrate control.
The known Pgp inhibitor was co-dosed at 50 μM with compound at 5 μM.
Cell monolayers were dosed on the apical side (A-to-B) or basolateral side (B-to-A) and incubated at 37° C. in a shaker (65 rpm). Samples were taken from the donor and receiver chambers at 120 minutes. Each determination was performed in duplicate.
Narrow-window mass extraction LC/MS analysis was performed for all samples from this study using a Waters Xevo quadrupole time-of-flight (QTof) mass spectrometer, to determine relative peak areas of parent compound. The percent of transported drug was calculated based on these peak areas, relative to the initial, dosing concentration.

SMILES	GI50 (T-47D) [µM]	CC50 (T-47D) [µM]	GI50 (SN12C) [µM]	CC50 (SN12C) [µM]	GI50 (NCI-H460) [µM]	CC50 (NCI-H460) [µM]	GI50 (NCI-H522) [µM]	CC50 (NCI-H522) [µM]	GI50 (MOLT-4) [µM]	CC50 (MOLT-4) [µM]	GI50 (UACC-257) [µM]	CC50 (UACC-257) [µM]	remaining activity at 0.3 µM (ERBB2) [%]	GI50 (UACC-62) [µM]	LC50 (UACC-62) [µM]	remaining activity at 0.3 µM (EGFR (L861Q)) [%]	GI50 (HOP-62) [µM]	CC50 (HOP-62) [µM]	GI50 (SK-MEL-28) [µM]	CC50 (SK-MEL-28) [µM]	further results
CN(C)C/C=C/C(=O)Nc1cc2c(Nc3ccc(F)c(Cl)c3F)ncnc2cc1OCCOC(F)F.O=C(O)/C=C\C(=O)O.O=C(O)/C=C\C(=O)O [Example I-9-MA, (E)-N-[4-(3-chloro-2,4-difluoro-anilino)-7-[2-(difluoromethoxy)ethoxy]quinazolin-6-yl]-4-(dimethylamino)but-2-enamide di-maleic acid salt]	< 0.01	88.1	0.054	28.1	2.56	62	< 0.01	9.17	0.849	47.5	2.18	34	0	1.49	9.95	0.1	1.35	41.5	2.29	36.2	Remaining Percentage (%) after 60 min (Microsomal stability): 30.53%; half-life at 1 μM (Microsomal stability): 35.2 min; microsomal CLint at 1 μM (Microsomal stability): 39.4 µL/min/mg; GI50 (HOP-92): 0.185 µM; CC50 (HOP-92): 31.2 µM
CN(C)C/C=C/C(=O)Nc1cc2c(Nc3ccc(F)c(Cl)c3)ncnc2cc1O[C@H]1CCOC1 [Afatinib, reference compound]	–	–	–	–	–	–	–	–	–	–	–	–	–	–	–	–	–	–	–	–	Papp A→B at 120 min, 5 µM (in vitro): 0.81 ×10⁻⁶ cm/s; Papp B→A at 120 min, 5 µM (in vitro): 16 ×10⁻⁶ cm/s
CN(C)C/C=C/C(=O)Nc1cc2c(Nc3cccc(Cl)c3F)ncnc2cc1OCCOC(F)F.O=C(O)/C=C\C(=O)O [Example I-5-MA, (E)-N-[4-(3-chloro-2-fluoro-anilino)-7-[2-(difluoromethoxy)ethoxy]quinazolin-6-yl]-4-(dimethylamino)but-2-enamide dimaleic acid salt]	–	–	–	–	–	–	–	–	–	–	–	–	–	–	–	–	–	–	–	–	Papp A→B at 120 min, 5 µM (in vitro): 13.5 ×10⁻⁶ cm/s; Papp B→A at 120 min, 5 µM (in vitro): 6.52 ×10⁻⁶ cm/s
O=C(/C=C/CN1CCCCC1)Nc1cc2c(Nc3ccc(F)c(Cl)c3F)ncnc2cc1OCCOC(F)F.O=C(O)/C=C\C(=O)O.O=C(O)/C=C\C(=O)O [Example I-10-MA, (E)-N-[4-(3-chloro-2,4-difluoro-anilino)-7-[2-(difluoromethoxy)ethoxy]quinazolin-6-yl]-4-(1-piperidyl)but-2-enamide di-maleic acid salt]	0.0814	> 100	0.281	41.2	2.34	54.4	0.0559	7.8	1.12	98.4	1.74	24.1	0.05	1.79	20.5	0.75	1.62	39.5	2.49	36.5	Remaining Percentage (%) after 60 min (Microsomal stability): 48.95%; half-life at 1 μM (Microsomal stability): 57.8 min; microsomal CLint at 1 μM (Microsomal stability): 24 µL/min/mg; GI50 (HOP-92): 0.151 µM; CC50 (HOP-92): 21.1 µM
